Data: ChEMBL document CHEMBL3352625, “Development of novel neurokinin 3 receptor (NK3R) selective agonists with resistance to proteolytic degradation” (J Med Chem, 2014)
The source made the active and inactive calls. The rule behind the calls is not given here. *1 amine or outer side, *2 acyl side, *3 side chain or, on linkers, in order; H or OH if unused. Where a SMILES comes first, the peptide text is derived from it. [ ]: non-standard residue; d: D form. Glyψ(E-CHCH)Leu = CC(C)C[C@H](/C=C/CN[*:1])C(=O)[*:2]; X4 = CC(C)C[C@H](N/C(CN[*:1])=N\O)C(=O)[*:2]; X3 = CC(C)C[C@H](NC(=N)CN[*:1])C(=O)[*:2]; X1 = CC(C)C[C@H](CCCN[*:1])C(=O)[*:2]; X2 = CC(C)C/C(=C\CCN[*:1])C(=O)[*:2]; NMeF = CN[C@@H](Cc1ccccc1)C(=O)O; Suc = O=C(CCC(=O)[*:2])[*:1]

Columns and labels:
Neuromedin-K receptor [1] = target: T1, Neuromedin-K receptor (Homo sapiens, UniProt P29371); assay: Displacement of [125I]His3, MePhe7 from human NK3R expressed in CHO cell membranes by scintillation counting
T1 sequence (P29371 whole entry): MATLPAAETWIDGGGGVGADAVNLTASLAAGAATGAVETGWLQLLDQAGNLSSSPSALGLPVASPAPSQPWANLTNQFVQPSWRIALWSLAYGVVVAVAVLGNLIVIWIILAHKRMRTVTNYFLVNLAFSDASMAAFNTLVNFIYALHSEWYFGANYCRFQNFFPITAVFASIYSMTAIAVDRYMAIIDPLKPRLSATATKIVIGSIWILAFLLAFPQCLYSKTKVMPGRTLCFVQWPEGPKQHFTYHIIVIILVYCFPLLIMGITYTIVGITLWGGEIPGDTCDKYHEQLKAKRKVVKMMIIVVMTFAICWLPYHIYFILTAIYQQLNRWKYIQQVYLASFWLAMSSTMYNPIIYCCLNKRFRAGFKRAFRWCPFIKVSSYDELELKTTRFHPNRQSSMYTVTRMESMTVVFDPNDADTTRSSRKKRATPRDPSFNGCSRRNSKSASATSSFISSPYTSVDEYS

Neuromedin-K receptor [2] = target: T1, Neuromedin-K receptor; assay: (§1) Agonist activity at human NK3R expressed in CHO cells assessed as induction of Ca2+ influx […]; format: functional, cell-based
[3] = target: Substance-P receptor (Homo sapiens) (UniProt P25103); assay: Displacement of [125I]-BH-SP from human NK1R expressed in CHO cell membranes at 10 uM by scintillation counting
Substance-P receptor (Homo sapiens), sequence (P25103 whole entry): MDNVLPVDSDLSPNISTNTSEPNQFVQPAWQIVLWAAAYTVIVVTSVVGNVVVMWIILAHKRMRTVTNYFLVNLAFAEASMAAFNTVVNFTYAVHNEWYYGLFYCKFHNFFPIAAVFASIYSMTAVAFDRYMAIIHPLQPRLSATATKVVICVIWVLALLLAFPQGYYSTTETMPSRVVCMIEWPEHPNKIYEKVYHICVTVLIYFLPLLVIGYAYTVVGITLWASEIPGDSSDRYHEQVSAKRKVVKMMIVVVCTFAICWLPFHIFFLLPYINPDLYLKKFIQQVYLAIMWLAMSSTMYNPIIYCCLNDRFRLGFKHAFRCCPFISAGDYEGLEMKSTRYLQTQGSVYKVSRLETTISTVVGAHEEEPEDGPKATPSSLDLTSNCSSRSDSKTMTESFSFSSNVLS

[4] = target: T2, Substance-K receptor (Homo sapiens) (UniProt P21452); assay: Displacement of [125I]-NKA from […] expressed in CHO cell membranes at 10 uM by scintillation counting
T2 sequence (whole entry): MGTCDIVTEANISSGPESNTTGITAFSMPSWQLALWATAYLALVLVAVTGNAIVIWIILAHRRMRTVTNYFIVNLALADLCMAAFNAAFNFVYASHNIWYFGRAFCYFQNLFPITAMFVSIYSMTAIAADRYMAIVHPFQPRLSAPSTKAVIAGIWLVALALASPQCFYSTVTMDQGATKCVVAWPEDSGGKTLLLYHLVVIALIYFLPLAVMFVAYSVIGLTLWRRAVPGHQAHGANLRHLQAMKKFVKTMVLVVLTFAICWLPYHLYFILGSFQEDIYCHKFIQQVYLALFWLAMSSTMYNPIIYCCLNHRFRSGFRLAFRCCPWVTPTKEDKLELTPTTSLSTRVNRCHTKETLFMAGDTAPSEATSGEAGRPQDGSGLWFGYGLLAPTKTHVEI

[5] = target: T3, Neuromedin-K receptor (Homo sapiens) (UniProt P29371); assay: as §1; format: functional, cell-based
T3 sequence (whole entry): T1 sequence (P29371 whole entry)

Neuromedin-K receptor [6] = target: T1, Neuromedin-K receptor; assay: Agonist activity at human NK3R expressed in CHO cells assessed as potentiation of senktide-induced effect; format: cell-based
Neuromedin-K receptor [7] = target: T4, Neuromedin-K receptor (Rattus norvegicus, UniProt P16177); assay: Agonist activity at rat NK3R
T4 sequence (P16177 whole entry): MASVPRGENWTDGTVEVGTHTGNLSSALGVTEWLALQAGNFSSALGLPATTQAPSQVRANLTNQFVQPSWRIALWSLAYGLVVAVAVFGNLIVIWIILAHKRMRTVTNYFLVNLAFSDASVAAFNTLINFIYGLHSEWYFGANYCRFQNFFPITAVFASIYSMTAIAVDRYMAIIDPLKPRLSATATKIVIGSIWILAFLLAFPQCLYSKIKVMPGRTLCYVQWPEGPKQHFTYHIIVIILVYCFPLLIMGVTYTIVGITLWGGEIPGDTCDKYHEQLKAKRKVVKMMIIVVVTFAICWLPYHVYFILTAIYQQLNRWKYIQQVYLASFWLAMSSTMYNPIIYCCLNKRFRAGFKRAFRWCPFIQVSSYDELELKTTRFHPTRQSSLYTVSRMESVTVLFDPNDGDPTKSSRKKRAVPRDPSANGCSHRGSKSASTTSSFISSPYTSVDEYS

[8] = Agonist activity at cattle NK3R; parameters: species or system Bos taurus
[9] = Agonist activity at goat NK3R; parameters: species or system Capra hircus
[10] = Induction of GnRH release in ovariectomized goat assessed as induction of multiple-unit activity volley measured as duration of effect at 200 nmol, iv as single dose; format: functional, Capra hircus

SMILES | IC50 (Neuromedin-K receptor [1]) [nM] | EC50 (Neuromedin-K receptor [6]) [nM] | further results
CSCC[C@H](NC(=O)[C@H](CC(C)C)NC(=O)CNC(=O)[C@H](Cc1ccccc1)N(C)C(=O)[C@H](Cc1ccccc1)NC(=O)[C@H](Cc1ccccc1)NC(=O)[C@H](CC(=O)O)NC(=O)[C@H](Cc1cnc[nH]1)NC(=O)[C@@H](N)CCSC)C(N)=O (H-MHDFF[NMeF]GLM-NH2) | 22 | – | EC50 (Neuromedin-K receptor [2]): 330 nM; inhibition [3]: 22%; inhibition [4]: 78%
CN(C(=O)[C@@H](N)Cc1ccccc1)[C@@H](Cc1ccccc1)C(=O)NCC(=O)O (H-Phe-[NMeF]-Gly-OH) | – | – | EC50 (Neuromedin-K receptor [2]): > 100000 nM
CN(C(=O)[C@H](Cc1ccccc1)NC(=O)[C@H](CC(=O)O)NC(=O)CCC(=O)O)[C@@H](Cc1ccccc1)C(=O)NCC(=O)O (Suc-DF[NMeF]G-OH) | – | – | Activity [5]: inactive
CSCC[C@H](NC(=O)[C@@H](/C=C/CNC(=O)[C@H](Cc1ccccc1)N(C)C(=O)[C@H](Cc1ccccc1)NC(=O)[C@H](CC(=O)O)NC(=O)CCC(=O)O)CC(C)C)C(N)=O (Suc-DF[NMeF][Glyψ(E-CHCH)Leu]M-NH2) | 56 | 16 | EC50 (Neuromedin-K receptor [7]): 19 nM; EC50 [8]: 360 nM; EC50 [9]: 11 nM; Time [10]: 92.1 min
CSCC[C@H](NC(=O)[C@@H](CCCNC(=O)[C@H](Cc1ccccc1)N(C)C(=O)[C@H](Cc1ccccc1)NC(=O)[C@H](CC(=O)O)NC(=O)CCC(=O)O)CC(C)C)C(N)=O (Suc-DF[NMeF][X1]M-NH2) | 19000 | 920 | –
CSCC[C@H](NC(=O)/C(=C/CCNC(=O)[C@H](Cc1ccccc1)N(C)C(=O)[C@H](Cc1ccccc1)NC(=O)[C@H](CC(=O)O)NC(=O)CCC(=O)O)CC(C)C)C(N)=O (Suc-DF[NMeF][X2]M-NH2) | 13000 | 1900 | –
CSCC[C@H](NC(=O)[C@H](CC(C)C)NC(=N)CNC(=O)[C@H](Cc1ccccc1)N(C)C(=O)[C@H](Cc1ccccc1)NC(=O)[C@H](CC(=O)O)NC(=O)CCC(=O)O)C(N)=O (Suc-DF[NMeF][X3]M-NH2) | 360 | 100 | –
CSCC[C@H](NC(=O)[C@H](CC(C)C)N/C(CNC(=O)[C@H](Cc1ccccc1)N(C)C(=O)[C@H](Cc1ccccc1)NC(=O)[C@H](CC(=O)O)NC(=O)CCC(=O)O)=N\O)C(N)=O (Suc-DF[NMeF][X4]M-NH2) | 1100 | 370 | –
